Experimental findings from patent publication US7595063B2, “Compressed tablet formulation” (Merck & Co., Inc., priority 1998, dated 2009) are described below.

The nature of this series: crystallinity of efavirenz upon compression. The class given is physicochemical. To be noted: compression into tablet.

`O=C1Nc2ccc(Cl)cc2[C@@](C#CC2CC2)(C(F)(F)F)O1` [efavirenz, (−)-6-chloro-4-cyclopropylethynyl-4-trifluoromethyl-1,4-dihydro-2H-3,1-benzoxazin-2-one]: the crystallinity upon compression entry was “loses crystallinity upon compression”.
